In this test the target is Escherichia coli DNA gyrase A/B tetramer (Escherichia coli, UniProt P0AES4+P0AES6). The test is described as follows: DNA gyrase supercoiling activity fluorescence polarisation assay. In kind it is biochemical. How it is done: The supercoiling reactions may be quenched by the addition of 10 microliters/well of 40 nM oligodeoxynucleotide probe in 3× triplex-forming buffer consisting of 150 mM NaCl, and 150 mM sodium acetate at pH 3.5. The oligodeoxynucleotide probe may be 5′-BODIPY-FL-labeled […]. After 60 minutes, the fluorescence anisotropy of the BODIPY-FL may be measured in a Tecan Ultra plate reader, using 485 nm excitation and 535 nm emission filters equipped with polarizers. The IC50 may be determined by nonliner regression using two control reactions. The first contains no test compound but 0.8% DMSO (100% activity) while the second control reaction contains 5 uM Ciprofloxacin and 0.8% DMSO (0% activity).

A value given as a limit tells only on which side of the number the result lay.

Here are results for nine molecules from patent US20110178064A1, “SPIRO CONDENSED […] DERIVATIVES FOR USE AS ANTIBACTERIAL” (A[…]&D, priority 2007, published 2011).

Chain of Escherichia coli DNA gyrase A/B tetramer (P0AES4 whole entry, one chain of several): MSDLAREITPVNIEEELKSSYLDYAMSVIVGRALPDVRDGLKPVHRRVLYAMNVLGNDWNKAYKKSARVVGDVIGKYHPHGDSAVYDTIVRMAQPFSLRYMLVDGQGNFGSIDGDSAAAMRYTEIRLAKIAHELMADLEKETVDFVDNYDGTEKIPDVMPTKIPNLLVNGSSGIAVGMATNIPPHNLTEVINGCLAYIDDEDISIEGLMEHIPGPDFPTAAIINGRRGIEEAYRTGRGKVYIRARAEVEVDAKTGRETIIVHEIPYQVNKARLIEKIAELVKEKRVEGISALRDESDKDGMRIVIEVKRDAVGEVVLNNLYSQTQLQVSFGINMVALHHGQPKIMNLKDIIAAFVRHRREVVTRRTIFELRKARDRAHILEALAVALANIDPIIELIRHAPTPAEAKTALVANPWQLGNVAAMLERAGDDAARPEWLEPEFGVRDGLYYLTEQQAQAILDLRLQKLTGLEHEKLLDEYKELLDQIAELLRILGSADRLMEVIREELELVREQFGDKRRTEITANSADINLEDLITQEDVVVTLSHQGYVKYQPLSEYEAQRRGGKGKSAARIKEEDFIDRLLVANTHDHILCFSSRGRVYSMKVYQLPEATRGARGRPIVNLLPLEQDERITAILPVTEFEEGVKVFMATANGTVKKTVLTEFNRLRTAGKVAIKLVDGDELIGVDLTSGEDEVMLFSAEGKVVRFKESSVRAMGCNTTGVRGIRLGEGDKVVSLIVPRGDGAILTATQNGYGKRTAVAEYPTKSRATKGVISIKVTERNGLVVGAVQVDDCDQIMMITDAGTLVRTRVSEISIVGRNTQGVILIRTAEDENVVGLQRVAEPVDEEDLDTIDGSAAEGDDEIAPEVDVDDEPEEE

In turn, `C[C@@H]1CN2c3nc(F)c(C#Cc4cnccn4)cc3CC3(C(=O)NC(=O)NC3=O)[C@H]2[C@H](C)O1` (racemic) [Example 22, (6aS,7S,9R)-rel-2-Fluoro-7,9-dimethyl-3-(pyrazin-2-ylethynyl)-6a,7,9,10-tetrahydro-1′H,5H-spiro[[4]oxazino[4,3-a][1,8]naphthyridine-6,5′-pyrimidine]-2′,4′,6′(3′H)-trione] yielded an IC50 of 4 µM. This lies in the single-digit micromolar range. With `C[C@@H]1CN2c3ncc(-c4nccn4C)cc3CC3(C(=O)NC(=O)NC3=O)[C@H]2[C@H](C)O1` (racemic) [Example 32, (6aS,7S,9R)-rel-7,9-Dimethyl-3-(1-methyl-1H-imidazol-2-yl)-6a., 7,9,10-tetrahydro-2′H,5H-spiro[1,4-oxazino[4,3-a][1,8]naphthyridine-6,5′-pyrimidine]-2′,4′,6′(1′H,3′H)-trione], the IC50 was determined as 24 µM. `Cc1cscc1-c1cnc2c(c1)CC1(C(=O)NC(=O)NC1=O)[C@H]1[C@H](C)O[C@H](C)CN21` (racemic) [Example 34, (6aS,7S,9R)-rel-7,9-Dimethyl-3-(4-methylthiophen-3-yl)-6a,7,9,10-tetrahydro-2′H,5H-spiro[1,4-oxazino[4,3-a][1,8]naphthyridine-6,5′-pyrimidine]-2′,4′,6′(1′H,3′H-trione] gave a concentration for half-maximal inhibition (IC50) of 15 µM. Against the preceding molecule, the IC50 is about 1.6-fold lower. The result for `C[C@@H]1CN2c3cnc(-c4cc5ccccc5o4)cc3CC3(C(=O)NC(=O)NC3=O)[C@H]2[C@H](C)O1` (racemic) [Example 53, (6aS,7S,9R)-rel-3-(1-Benzofuran-2-yl)-7,9-dimethyl-6a,7,9,10-tetrahydro-2′H,5H-spiro[1,4-oxazino[4,3-a][1,7]napthyridine-6,5′-pyrimidine]2′,4′,6′(1′H,3′H)-trione] reads 16 µM. Consider `C[C@@H]1CN2c3cnc(-c4ccco4)cc3CC3(C(=O)NC(=O)NC3=O)[C@H]2[C@H](C)O1` (racemic) [Example 54, (6aS,7S,9R)-rel-3-(Furan-2-yl)-7,9-dimethyl-6a,7,9,10-tetrahydro-2′H,5H-spiro[1,4-oxazino[4,3-a][1,7]naphthyridine-6,5′-pyrimidine]-2′,4′,6′(1′H3″H)-trione], for which the half-inhibitory concentration (IC50) was more than 83 µM.

Molecule `COc1ccncc1-c1cc2c(cn1)N1C[C@@H](C)O[C@@H](C)[C@@H]1C1(C2)C(=O)NC(=O)NC1=O` (racemic) [Example 58, (6aS,7S,9R)-rel-3-(4-Methoxypyridin-3-yl)-7,9-dimethyl-6a,7,9,10-tetrahydro-2′H,5H-spiro[1,4-oxazino[4,3-a][1,7]naphthyridine-6,5′-pyrimidine]-2′,4′,6′(1″H3″H)-trione] came in with an IC50 of more than 83 µM. The figure for `C[C@@H]1CN2c3cnc(-c4cccnc4)cc3CC3(C(=O)NC(=O)NC3=O)[C@H]2[C@H](C)O1` (racemic) [Example 61, (6aS,7S,9R)-rel-7,9-Dimethyl-3-pyridin-3-yl)-6a,7,9,10-tetrahydro-2′H,5H-spiro[1,4-oxazino[4,3-a][1,7]naphthyridine-6,5′-pyrimidine]-2′,4′,6′(1′H,3′H)-trione] is 18 µM; for `C[C@@H]1CN2c3ccc(-c4ccccn4)nc3CC3(C(=O)NC(=O)NC3=O)[C@H]2[C@H](C)O1` (racemic) [Example 69, (2R,4S,4aS)-rel-2,4-Dimethyl-8-(pyridin-2-yl)-1,2,4,4a-tetrahydro-2′H,6H-spiro[1,4-oxazino[4,3-a][1,5]naphthyridine-5,5′-pyrimidine]-2′,4′,6′(1′H3″H)-trione] it is 29 µM. The figure for `C[C@@H]1CN2c3cnc(-c4nccs4)cc3CC3(C(=O)NC(=O)NC3=O)[C@H]2[C@H](C)O1` (racemic) [Example 86, (6aS,7S,9R)-rel-7,9-Dimethyl-3-(1,3-thiazol-2-yl)-6a., 7,9,10-tetrahydro-2′H,5H-spiro[1,4-oxazino[4,3-a][1,7]naphthyridine-6,5′-pyrimidine]-2′,4′,6′(1′H,3′H)-trione] is 61 µM.
